Results as given in US11185073B2, “Microbiocidal quinoline (thio)carboxamide derivatives” (SYNGENTA PARTICIPATIONS AG, priority 2017, dated 2021).

Experiments:
[1] = tested on: Magnaporthe grisea (Pyricularia oryzae); assay: microbe, parasite or virus in culture; format: cell-based; details: 72 h, read-out: control of Magnaporthe grisea
[2] = tested on: Botryotinia fuckeliana (Botrytis cinerea); assay: Botryotinia fuckeliana (Botrytis cinerea) / liquid culture (gray mould); format: cell-based; details: 72 h, growth inhibition photometrically 3-4 days after application, compared to untreated control
[3] = tested on: Glomerella lagenarium (Colletotrichum lagenarium); assay: Glomerella lagenarium (Colletotrichum lagenarium) / liquid culture (anthracnose); format: cell-based; details: Colletotrichum orbiculare, growth inhibition photometrically 3-4 days after application, compared to untreated control
[4] = tested on: Monographella nivalis (Microdochium nivale); assay: Monographella nivalis (Microdochium nivale) / liquid culture (foot rot cereals); format: cell-based; details: 96 h, growth inhibition photometrically 4-5 days after application, compared to untreated control
Fusarium culmorum [5] = assay: whole plant or invertebrate; format: in vivo; details: in Triticum aestivum, read-out: control of Fusarium culmorum
Fusarium culmorum [6] = assay: microbe, parasite or virus in culture; format: cell-based; details: 72 h, read-out: control of Fusarium culmorum
[7] = tested on: Gibberella zeae (Fusarium graminearum); assay: whole plant or invertebrate; format: in vivo; details: in Triticum aestivum, read-out: control of Gibberella zeae

Row | Compound | melting point | inhibition of growth at 20 ppm [1] | inhibition of growth at 20 ppm [2] | inhibition of growth at 20 ppm [3] | inhibition of growth at 20 ppm [4] | pest or weed control at 200 ppm (Fusarium culmorum [5]) | inhibition of growth at 20 ppm (Fusarium culmorum [6]) | pest or weed control at 200 ppm [7]
1 | C[C@](COC1CCCCC1)(CC(F)(F)F)NC(=O)c1cnc2c(F)cccc2c1 [E.016, N-[(1R)-1-(cyclo-hexoxymethyl)-3,3,3-trifluoro-1-methyl-propyl]-8-fluoro-quinoline-3-carboxamide] | 80 to 85 °C | ≥ 80% | ≥ 80% | ≥ 80% | ≥ 80% | ≥ 80% | ≥ 80% | 
2 | CC(COC1CCCCCC1)(CC(F)(F)F)NC(=O)c1cnc2c(F)cccc2c1 (centres unmarked) [E.026, N-[1-(cyclohept-oxymethyl)-3,3,3-trifluoro-1-methyl-propyl)-8-fluoro-quinoline-3-carboxamide] | 80 to 85 °C | ≥ 80% | ≥ 80% | ≥ 80% | ≥ 80% | ≥ 80% | ≥ 80% | 
3 | CC1(C)CC(OCC(C)(CC(F)(F)F)NC(=O)c2cnc3c(Cl)cccc3c2)C1 (centres unmarked) [E.002, 8-chloro-N-[1-[(3,3-dimethyl-cyclobutoxy)-methyl]-3,3,3-trifluoro-1-methylpropyl]-quinoline-3-carboxamide] | 127 to 130 °C | ≥ 80% | ≥ 80% | ≥ 80% | ≥ 80% | ≥ 80% | ≥ 80% | 
4 | Cc1c(C(=O)NC(C)(COC2CCC2)CC(F)(F)F)cnc2c(F)cccc12 (centres unmarked) [E.007, N-[1-(cyclo-butoxymethyl)-3,3,3-trifluoro-1-methyl-propyl]-8-fluoro-4-methyl-quinoline-3-carboxamide] |  | ≥ 80% | ≥ 80% | ≥ 80% | ≥ 80% | ≥ 80% | ≥ 80% | ≥ 80%
5 | CC(C)CC(C)(COCc1ccccc1)NC(=O)c1cnc2c(F)cccc2c1 (centres unmarked) [E.030, N-[1-(benzyloxy-methyl)-1,3-dimethyl-butyl]-8-fluoro-quinoline-3-carboxamide] | 120 to 122 °C | ≥ 80% | ≥ 80% | ≥ 80% | ≥ 80% |  | ≥ 80% | 
6 | C=C(C)COCC(C)(CC(C)C)NC(=O)c1cnc2c(F)cccc2c1 (centres unmarked) [E.020, N-[1,3-dimethyl-1-(2-methylallyloxy-methyl)butyl]-8-fluoro-quinoline-3-carboxamide] |  | ≥ 80% | ≥ 80% | ≥ 80% | ≥ 80% | ≥ 80% | ≥ 80% | ≥ 80%
7 | CC(COc1ccc(Cl)cc1)(CC(F)(F)F)NC(=O)c1cnc2c(F)cccc2c1 (centres unmarked) [E.005, N-[1-[(4-chloro-phenoxy)methyl]-3,3,3-trifluoro-1-methyl-propyl]-8-fluoro-quinoline-3-carboxamide] | 94 to 96 °C | ≥ 80% | ≥ 80% | ≥ 80% | ≥ 80% | ≥ 80% | ≥ 80% | 
8 | CC(COC1CCC1)(CC(F)(F)F)NC(=O)c1cnc2c(Cl)cccc2c1 (centres unmarked) [E.012, 8-chloro-N-[1-(cyclobutoxymethyl)-3,3,3-trifluoro-1-methyl-propyl]-quinoline-3-carboxamide] |  | ≥ 80% | ≥ 80% | ≥ 80% | ≥ 80% | ≥ 80% | ≥ 80% | ≥ 80%
9 | CC(COC1CCC(F)(F)CC1)(CC(F)(F)F)NC(=O)c1cnc2c(F)cccc2c1 (centres unmarked) [E.003, N-[1-[(4,4-difluoro-cyclohexoxy)-methyl]-3,3,3-trifluoro-1-methyl-propyl]-8-fluoro-quinoline-3-carboxamide] | 42 to 44 °C | ≥ 80% | ≥ 80% | ≥ 80% | ≥ 80% | ≥ 80% | ≥ 80% | ≥ 80%
10 | CC(C)(C)COCC(C)(CC(F)(F)F)NC(=O)c1cnc2c(F)cccc2c1 (centres unmarked) [E.001, N-[1-(2,2-dimethyl-propoxymethyl)-3,3,3-trifluoro-1-methyl-propyl]-8-fluoro-quinoline-3-carboxamide] | 74 to 78 °C | ≥ 80% | ≥ 80% | ≥ 80% | ≥ 80% | ≥ 80% | ≥ 80% | ≥ 80%
11 | COCC(C)(CC(C)C)NC(=O)c1cnc2c(F)cccc2c1 (centres unmarked) [E.032, 8-fluoro-N-[1-(methoxymethyl)-1,3-dimethyl-butyl]quinoline-3-carboxamide] | 136 to 138 °C |  | ≥ 80% |  |  |  | ≥ 80% | 
12 | CC(COC1CCCCC1)(CC(F)(F)F)NC(=O)c1cnc2c(F)cccc2c1 (centres unmarked) [E.027, N-[1-(cyclohexoxy-methyl)-3,3,3-trifluoro-1-methyl-propyl]-8-fluoro-quinoline-3-carboxamide] |  | ≥ 80% | ≥ 80% | ≥ 80% | ≥ 80% | ≥ 80% | ≥ 80% | ≥ 80%
13 | CC1(C)CC(OCC(C)(CC(F)(F)F)NC(=O)c2cnc3c(F)cccc3c2)C1 (centres unmarked) [E.004, N-[1-[(3,3-dimethyl-cyclobutoxy)-methyl]-3,3,3-trifluoro-1-methyl-propyl]-8-fluoro-quinoline-3-carboxamide] | 80 to 84 °C | ≥ 80% | ≥ 80% | ≥ 80% | ≥ 80% | ≥ 80% | ≥ 80% | 
14 | CC(COC1CCC1)(CC(F)(F)F)NC(=O)c1cnc2c(F)c(F)ccc2c1 (centres unmarked) [E.008, N-[1-(cyclo-butoxymethyl)-3,3,3-trifluoro-1-methyl-propyl]-7,8-difluoro-quinoline-3-carboxamide] |  | ≥ 80% | ≥ 80% | ≥ 80% | ≥ 80% | ≥ 80% | ≥ 80% | ≥ 80%
